The values below come from US20100022531A1, “NOVEL COMPOUNDS AS P2X7 MODULATORS AND USES THEREOF” (RENOVIS, INC., priority 2005, published 2010).

SMILES strings stand for the structures.

The target in the first test is T1, P2X7 receptor (Homo sapiens, UniProt Q99572).
T1 construct: host or cells: THP-1 cells differentiated with LPS and IFN-γ
T1 sequence (Q99572 1-595): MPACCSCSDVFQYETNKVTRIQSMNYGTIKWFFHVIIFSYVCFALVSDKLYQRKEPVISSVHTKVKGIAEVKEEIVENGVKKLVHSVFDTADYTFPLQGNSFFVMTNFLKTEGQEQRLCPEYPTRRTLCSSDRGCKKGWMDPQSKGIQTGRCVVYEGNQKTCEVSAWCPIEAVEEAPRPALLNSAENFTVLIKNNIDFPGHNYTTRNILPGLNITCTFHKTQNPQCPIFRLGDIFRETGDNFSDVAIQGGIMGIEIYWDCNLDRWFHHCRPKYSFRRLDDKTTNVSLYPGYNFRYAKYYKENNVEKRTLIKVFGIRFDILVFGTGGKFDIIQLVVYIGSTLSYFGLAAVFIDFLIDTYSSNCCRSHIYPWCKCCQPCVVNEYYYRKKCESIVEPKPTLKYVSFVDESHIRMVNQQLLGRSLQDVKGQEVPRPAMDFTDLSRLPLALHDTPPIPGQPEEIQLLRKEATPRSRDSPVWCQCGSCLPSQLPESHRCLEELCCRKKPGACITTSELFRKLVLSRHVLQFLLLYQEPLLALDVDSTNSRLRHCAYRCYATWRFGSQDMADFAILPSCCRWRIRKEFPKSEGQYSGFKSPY
The test can be described thus: Alternate method for IL-1β release assay (differentiated THP-1 cells, BzATP-stimulated, ELISA). In kind it is cell-based. The conditions noted are these: P2X7; 0.1 μM compound (plus symbols); read-out: IL-1β % inhib @ 0.1 μM. In short, it runs like this: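 After 16 h differentiation with 100 ng/mL LPS and 100 ng/mL IFN-γ plus a further 2 h LPS priming, THP-1 cells were pretreated 30 min with compound, then stimulated with 250 uM BzATP (final) for 45 min. Supernatant IL-1β measured by ELISA; percent inhibition from background-adjusted levels versus untreated cells.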
For the compound `O=C(c1cccc(F)c1)N1CCc2c(ncnc2NCC23CC4CC(CC(C4)C2)C3)C1` [Compound 83], the inhibition at 0.1 µM was > 75%.

The same test, now with this note: P2X7; 0.1 μM compound (symbols + to ++++); read-out: IL-1β % inhib @ 0.1 μM.
Turning to `O=C(OCc1ccncc1)N1CCc2c(ncnc2NCC23CC4CC(CC(C4)C2)C3)C1` [Compound 343], the inhibition at 0.1 µM is 0 to 25%.

The same test, now with this note: P2X7; 0.3 μM compound (asterisk symbols); read-out: IL-1β % inhib @ 0.3 μM.
Regarding `c1ccc(Oc2ccc(CN3CCc4c(ncnc4NCC45CC6CC(CC(C6)C4)C5)C3)cc2)cc1` [Compound 187], the inhibition at 0.3 µM was in the range of 50 to 75%. As to `COc1ccc(S(=O)(=O)N2CCc3c(ncnc3NCC34CC5CC(CC(C5)C3)C4)C2)c(OC)c1` [Compound 53], the inhibition at 0.3 µM is 50 to 75%. With `CC(C)(C)c1ccc(C(=O)N2CCc3c(ncnc3NCC34CC5CC(CC(C5)C3)C4)C2)cc1` [Compound 152], the inhibition at 0.3 µM was > 75%.

As to `O=S(=O)(c1ccc(Cl)cc1F)N1CCc2c(ncnc2NCC23CC4CC(CC(C4)C2)C3)C1` [Compound 59], the inhibition at 0.3 µM was in the range of 25 to 50%.

Turning to `O=C(C1COc2ccccc2C1)N1CCc2c(ncnc2NCC23CC4CC(CC(C4)C2)C3)C1` (stereo not shown) [Compound 160], the inhibition at 0.3 µM was > 75%. Take `O=S(=O)(c1ccc2ccccc2c1)N1CCc2c(ncnc2NCC23CC4CC(CC(C4)C2)C3)C1` [Compound 6]: the inhibition at 0.3 µM was 0 to 25%. On the same count and under the same terms, under `CCc1ccc(C(=O)N2CCc3c(ncnc3NCC34CC5CC(CC(C5)C3)C4)C2)cc1` [Compound 85] stands 50 to 75%; under `O=C(CCc1ccccc1)N1CCc2c(ncnc2NCC23CC4CC(CC(C4)C2)C3)C1` [Compound 103], > 75%. `COc1cccc(CC(=O)N2CCc3c(ncnc3NCC34CC5CC(CC(C5)C3)C4)C2)c1` [Compound 116]: the inhibition at 0.3 µM lay within 25 to 50%. Same read-out and setting: under `O=C(c1ccc(Cl)cc1Cl)N1CCc2c(ncnc2NCC23CC4CC(CC(C4)C2)C3)C1` [Compound 113] stands > 75%. Turning to `CCCCN1CCc2c(ncnc2NCC23CC4CC(CC(C4)C2)C3)C1` [Compound 189], the inhibition at 0.3 µM lay within 0 to 25%.

With `COc1ccc(OC)c(S(=O)(=O)N2CCc3c(ncnc3NCC34CC5CC(CC(C5)C3)C4)C2)c1` [Compound 72], the inhibition at 0.3 µM was in the range of 25 to 50%. Still for that read-out and setting: under `O=S(=O)(Cc1cccc(C(F)(F)F)c1)N1CCc2c(ncnc2NCC23CC4CC(CC(C4)C2)C3)C1` [Compound 43] stands 25 to 50%. The same measure, in the same setting: then `COc1cccc(S(=O)(=O)N2CCc3c(ncnc3NCC34CC5CC(CC(C5)C3)C4)C2)c1` [Compound 21], with 50 to 75%. For `Cc1cc(C(=O)N2CCc3c(ncnc3NCC34CC5CC(CC(C5)C3)C4)C2)nn1C` [Compound 139], the inhibition at 0.3 µM is 0 to 25%.

`O=S(=O)(c1ccc(OC(F)(F)F)cc1)N1CCc2c(ncnc2NCC23CC4CC(CC(C4)C2)C3)C1` [Compound 16]: the inhibition at 0.3 µM was 0 to 25%.

The test is the same for the next values; noted with them: P2X7; 0.3 μM compound (symbols * to ****); read-out: IL-1β % inhib @ 0.3 μM.
As for `O=C(CN1CCCCCC1)N1CCc2c(ncnc2NCC2C3CC4CC(C3)CC2C4)C1` (stereo not shown) [Compound 275], the inhibition at 0.3 µM lay within 0 to 25%. Still for that read-out and setting: under `CCN1CCN(CC(=O)N2CCc3c(ncnc3NCC3C4CC5CC(C4)CC3C5)C2)CC1` (stereo not shown) [Compound 278] stands 25 to 50%; under `CC1CCN(CC(=O)N2CCc3c(ncnc3NCC3C4CC5CC(C4)CC3C5)C2)CC1` (stereo not shown) [Compound 292], 25 to 50%; under `CN(CC(=O)N1CCc2c(ncnc2NCC2C3CC4CC(C3)CC2C4)C1)Cc1ccc(Cl)cc1` (stereo not shown) [Compound 306], 25 to 50%. The same measure, in the same setting: then `O=C(CNC1CCN(Cc2ccccc2)CC1)N1CCc2c(ncnc2NCC23CC4CC(CC(C4)C2)C3)C1` [Compound 261], with 25 to 50%; and `FC(F)(F)Oc1cccc(CN2CCc3c(ncnc3NCC34CC5CC(CC(C5)C3)C4)C2)c1` [Compound 243], with > 75%.

The test is the same for the next values; noted with them: P2X7; at 0.03 μM (asterisk symbols); read-out: IL-1β % inhib @ 0.3 μM or @ 0.03 μM.
`CC(C)(C)OC(=O)NCC(=O)N1CCc2c(ncnc2NCC(O)C23CC4CC(CC(C4)C2)C3)C1` (stereo not shown) [Compound 707, {2-[4-(2-Adamantan-1-yl-2-hydroxy-ethylamino)-5,8-dihydro-6H-pyrido[3,4d]pyrimidin-7-yl]-2-oxo-ethyl}-carbamic acid tert-butyl ester]: the inhibition at 0.03 µM lay within 50 to 75%.
